According to patent US20250057910A1, “Application of Polypeptide in Preparation of Product for Preventing or Treating Skin Injury Diseases” (Sichuan Gooddoctor Panxi Pharmaceutical Co., Ltd., priority 2021, published 2025):
Ends that are not written are not given here.

Test system: Transgenic zebrafish with vascular green fluorescence
Test: Angiogenesis in zebrafish with simvastatin-induced microvessel deficiency
Type: in vivo
Details: intravenous injection 12.5, 25.0 and 50.0 mg/mL, 10 nL, 2 days, vs model control
Method: Experimental animals: Transgenic zebrafish with vascular green fluorescence, raised in water for culturing fish at 28° C. (water quality: 200 mg of instant dissolving sea salt being added to every 1 L of water made by reverse osmosis, with a conductivity of 450-550 μS/cm, a pH of 6.5-8.5 and a hardness of 50-100 mg/L CaCO3), at the age of 1 day post fertilization (1 dpf). The animals were provided by the fish breeding center of Hangzhou Hunter Biotechnology Co., Ltd. with the experimental animal use license number of SYXK (Zhejiang) 2012-0171, and the breeding management complied with the requirements of international AAALAC certification (certification number: 001458).
Experimental method: 1 dpf transgenic zebrafish with vascular green fluorescence were randomly selected and placed in a 6-well plate, with 30 fish per well (per experimental group). […] Treatment was performed at 28° C. for 2 days, 10 zebrafish were randomly selected in each experimental group and placed under a fluorescence microscope to take photos, the data were analyzed and collected using NIS-Elements D 3.20 advanced image processing software, the subintestinal vascular area and the number of subintestinal vascular branches were analyzed, and the statistical analysis results of these indexes were used to evaluate the efficacy of the samples of promoting angiogenesis.

PAAEPVPL [polypeptide]
Subintestinal vascular area (area of regenerated blood vessels) (FIG. 6): significantly promote the increase of the subintestinal vascular area | Number of subintestinal vascular branches (FIG. 7): the increase of the number of subintestinal vascular branches
